Source: ChEMBL document CHEMBL4706653, “Ultra-short lipopeptides against gram-positive bacteria while alleviating antimicrobial resistance” (Eur J Med Chem, 2021)
Converted amounts (≈) assume the structure as drawn. The source made the active and inactive calls. The rule behind the calls is not given here. Positions of bridges follow the written chain, without caps; N, C: chain ends. Non-standard residues stand in square brackets, D forms with d. Residues, ends and D or L forms follow the SMILES beside them. *: point of attachment. X1 = CC[C@H](C)CCCCC(=O)*; Dab = NCC[C@H](N)C(=O)O

Key:
[1] = system: Staphylococcus epidermidis; test: Antimicrobial activity against Staphylococcus epidermidis ATCC 12228 after 18 hrs by broth microdilution method; format: functional
[2] = system: Staphylococcus aureus; test: Antimicrobial activity against Staphylococcus aureus ATCC 25923 after 18 hrs by broth microdilution method; format: functional
[3] = system: Staphylococcus aureus; test: Antimicrobial activity against Staphylococcus aureus ATCC 29213 after 18 hrs by broth microdilution method; format: functional
[4] = system: Bacillus subtilis; test: Antimicrobial activity against Bacillus subtilis ATCC 23857 after 18 hrs by broth microdilution method; format: functional
[5] = system: Staphylococcus aureus; test: Antimicrobial activity against methicillin-resistant Staphylococcus aureus 75 after 18 hrs by broth microdilution method; format: functional
[6] = system: Staphylococcus aureus; test: Antimicrobial activity against methicillin-resistant Staphylococcus aureus 113 after 18 hrs by broth microdilution method; format: functional
[7] = system: Staphylococcus aureus; test: Antimicrobial activity against Staphylococcus aureus ATCC 25923 assessed as bacterial killing preincubated for 4 hrs followed by replating on MHB agar and measured after 24 hrs by time kill assay; format: functional, organism-based; settings: time 28.0 hrs
[8] = system: Staphylococcus aureus; test: Antimicrobial activity against Staphylococcus aureus ATCC 25923 at 0.5 times MIC after 15 passages by broth microdilution method; format: functional, organism-based
[9] = system: Staphylococcus epidermidis; test: Antimicrobial activity against Staphylococcus epidermidis ATCC 12228 at 0.5 times MIC after 15 passages by broth microdilution method; format: functional, organism-based
[10] = system: Staphylococcus aureus; test: Antibiofilm activity against Staphylococcus aureus ATCC 25923 at 0.5 to 8 uM after 24 hrs by crystal violet staining based assay; format: functional, organism-based; settings: dose 0.5-8 µM
[11] = system: Staphylococcus aureus; test: Antibiofilm activity against ciprofloxacin-resistant Staphylococcus aureus ATCC 25923 at 0.5 to 8 uM after 24 hrs by crystal violet staining based assay; format: functional, organism-based; settings: dose 0.5-8 µM
[12] = system: Lipopolysaccharide (LPS); test: Binding affinity to LPS (unknown origin) assessed as bacterial killing at 2 times MIC preincubated for 1 hr followed by Staphylococcus aureus ATCC 25923 addition and measured after 2 hrs by colony counting method; settings: time 3.0 hrs
[13] = Binding affinity to LTA (unknown origin) assessed as bacterial killing at 2 times MIC preincubated for 1 hr followed by Staphylococcus aureus ATCC 25923 addition and measured after 2 hrs by colony counting method; settings: time 3.0 hrs
[14] = system: Cell membrane; test: Induction of cytoplasmic membrane disruption in Staphylococcus aureus ATCC 25923 measured for 15 mins by DiSC3-5 dye based fluorescence assay
[15] = system: Cell membrane; test: Induction of membrane disruption in Staphylococcus aureus ATCC 25923 measured after 2 hrs by propidium iodide staining based confocal laser scanning microscopic analysis; format: subcellular
[16] = system: Cell membrane; test: Induction of membrane disruption in Staphylococcus aureus ATCC 25923 assessed as PI-positive cells at 4 times MIC measured after 2 hrs by propidium iodide staining based flow cytometry relative to control
[17] = system: Cell membrane; test: Induction of membrane disruption in Staphylococcus aureus ATCC 25923 assessed as PI-positive cells at 2 times MIC measured after 2 hrs by propidium iodide staining based flow cytometry relative to control
[18] = system: Staphylococcus aureus; test: Induction of reactive oxygen species generation in Staphylococcus aureus ATCC 25923 by […] dye based fluorescence assay; format: functional, organism-based
[19] = system: Staphylococcus aureus; test: Induction of nucleic acid leakage in Staphylococcus aureus ATCC 25923 at 4 times MIC; format: functional
[20] = Toxicity in BALB/c mouse assessed as ruffled fur at 20 to 80 mg/kg, ip administered as single dose measured within 30 mins; format: organism-based; settings: in vivo, 0.5 h, dose 20-80 mg/kg
[21] = Toxicity in BALB/c mouse assessed as immobility at 20 to 80 mg/kg, ip administered as single dose measured within 30 mins; format: organism-based; settings: in vivo, 0.5 h, dose 20-80 mg/kg
[22] = Toxicity in BALB/c mouse assessed as death at 20 to 80 mg/kg, ip administered as single dose measured within 30 mins; format: organism-based; settings: in vivo, 0.5 h, dose 20-80 mg/kg
[23] = Toxicity in BALB/c mouse assessed as death at 20 mg/kg, ip administered as single dose measured within 24 hrs; format: organism-based; settings: in vivo
[24] = Toxicity in BALB/c mouse assessed as inflammatory cell infiltration in liver at 20 mg/kg, ip administered as single dose measured after 5 days; format: organism-based; settings: in vivo, 120 h, time 5 day
[25] = Toxicity in BALB/c mouse assessed as congestion in liver at 20 mg/kg, ip administered as single dose measured after 5 days; format: organism-based; settings: in vivo, 120 h, time 5 day
[26] = Toxicity in BALB/c mouse assessed as vacuoles in liver cytoplasm at 20 mg/kg, ip administered as single dose measured after 5 days; format: organism-based; settings: in vivo, 120 h, time 5 day
[27] = Toxicity in BALB/c mouse assessed as liver cell lysis at 80 mg/kg, ip administered as single dose measured after 5 days; format: organism-based; settings: in vivo, 120 h, time 5 day
[28] = Toxicity in BALB/c mouse assessed as swelling of renal tubular epithelial cells at 80 mg/kg, ip administered as single dose measured after 5 days; format: organism-based; settings: in vivo, 120 h, time 5 day
[29] = Toxicity in BALB/c mouse assessed as eosinophilic mass in the renal tubular lumen at 80 mg/kg, ip administered as single dose measured after 5 days; format: organism-based; settings: in vivo, 120 h, time 5 day
[30] = Toxicity in BALB/c mouse assessed as inflammatory cell infiltration in kidney at 80 mg/kg, ip administered as single dose measured after 5 days; format: organism-based; settings: in vivo, 120 h, time 5 day
[31] = Toxicity in BALB/c mouse assessed as congestion in kidney at 40 mg/kg, ip administered as single dose measured after 5 days; format: organism-based; settings: in vivo, 120 h, time 5 day
[32] = system: Erythrocyte; test: Hemolytic activity against mouse erythrocytes measured after 1 hr; format: ADME, cell-based
[33] = Therapeutic index, ratio of MHC for mouse RBC to geometric mean of peptide MIC for Staphylococcus epidermidis ATCC 12228; format: toxicity; settings: pooled result: one value given for 6 cell lines, strains, targets or settings, read-out: TI
[34] = system: Staphylococcus aureus; test: Ratio of MIC for antimicrobial activity against Staphylococcus aureus ATCC 25923 in presence of 5% serum to MIC for antimicrobial activity against Staphylococcus aureus ATCC 25923 in absence of serum; format: functional
[35] = system: Staphylococcus aureus; test: Ratio of MIC for antimicrobial activity against Staphylococcus aureus ATCC 25923 in presence of 10% serum to MIC for antimicrobial activity against Staphylococcus aureus ATCC 25923 in absence of serum; format: functional
[36] = system: Staphylococcus aureus; test: Ratio of MIC for antimicrobial activity against Staphylococcus aureus ATCC 25923 in presence of 2.5% serum to MIC for antimicrobial activity against Staphylococcus aureus ATCC 25923 in absence of serum; format: functional
[37] = system: Staphylococcus aureus; test: Antimicrobial activity against Staphylococcus aureus ATCC 25923 assessed as bacterial killing at 0.5 times MIC preincubated for 4 hrs followed by replating on MHB agar and measured after 24 hrs by time kill assay; format: functional, organism-based; settings: time 28.0 hrs
[38] = system: Staphylococcus aureus; test: Antimicrobial activity against Staphylococcus aureus ATCC 25923 assessed as bacterial killing at 4 times MIC preincubated for 30 mins followed by replating on MHB agar and measured after 24 hrs by time kill assay; format: functional, organism-based; settings: time 24.5 hrs
[39] = system: Staphylococcus aureus; test: Antimicrobial activity against Staphylococcus aureus ATCC 25923 assessed as bacterial killing at 2 times MIC preincubated for 2 hrs followed by replating on MHB agar and measured after 24 hrs by time kill assay; format: functional, organism-based; settings: time 26.0 hrs
[40] = system: Staphylococcus aureus; test: Antimicrobial activity against Staphylococcus aureus ATCC 25923 assessed as bacterial killing at MIC preincubated for 4 hrs followed by replating on MHB agar and measured after 24 hrs by time kill assay; format: functional, organism-based; settings: time 28.0 hrs
[41] = system: HEK-293T; test: Cytotoxicity against HEK293T cells assessed as reduction in cell viability at 1 uM measured after 24 hrs by MTT assay; format: cell-based; settings: human

`CC[C@H](C)CCCCC(=O)N[C@@H](CCN)C(=O)N[C@H](C(=O)N[C@@H](CCN)C(=O)N[C@H]1CCNC(=O)[C@H]([C@@H](C)O)NC(=O)[C@H](CCN)NC(=O)[C@H](CCN)NC(=O)[C@H](CC(C)C)NC(=O)[C@@H](Cc2ccccc2)NC(=O)[C@H](CCN)NC1=O)[C@@H](C)O` (X1-[Dab]T[Dab][Dab][Dab][dF]L[Dab][Dab]T; lactam 4-C) showed an MIC [1] of 8 µM (≈ 9.63 µg/mL), an MIC [2] of 16 µM (≈ 19.3 µg/mL) and an MIC [3] of 16 µM (≈ 19.3 µg/mL). For the same compound, the MIC [4] was 8 µM (≈ 9.63 µg/mL), the MIC [5] was 8 µM (≈ 9.63 µg/mL) and the MIC [6] was 8 µM (≈ 9.63 µg/mL). The Activity [7] was “inactive”, the Activity [8] was “Active” and the Activity [9] was “Active”. For the same compound, the Activity [10] was “Active”, the Activity [11] was “Active” and the Activity [12] was “Active”. For the same compound, the Activity [13] was “Active”, the Activity [14] was “inactive” and the Activity [15] was “inactive”. For the same compound, the Activity [16] was 84.8%, the Activity [17] was 68% and the Activity [18] was “Active”. The Activity [19] was “inactive”, the Activity [20] was “Toxic” and the Activity [21] was “Toxic”. For the same compound, the Activity [22] was “Toxic”, the Activity [23] was “Toxic” and the Activity [24] was “Toxic”. For the same compound, the Activity [25] was “Toxic”, the Activity [26] was “Toxic” and the Activity [27] was “Toxic”. For the same compound, the Activity [28] was “Toxic”, the Activity [29] was “Toxic” and the Activity [30] was “Toxic”. For the same compound, the Activity [31] was “Toxic”.
Work on `CC[C@H](C)[C@H](NC(=O)CN)C(=O)NCC(=O)N[C@@H](C)C(=O)N[C@H](C(=O)N[C@@H](CC(C)C)C(=O)N[C@@H](CCCCN)C(=O)N[C@H](C(=O)N[C@@H](CC(C)C)C(=O)N[C@H](C(=O)N[C@H](C(=O)NCC(=O)N[C@@H](CC(C)C)C(=O)N1CCC[C@H]1C(=O)N[C@@H](C)C(=O)N[C@@H](CC(C)C)C(=O)N[C@H](C(=O)N[C@@H](CO)C(=O)N[C@@H](Cc1c[nH]c2ccccc12)C(=O)N[C@H](C(=O)N[C@@H](CCCCN)C(=O)N[C@@H](CCCNC(=N)N)C(=O)N[C@@H](CCCCN)C(=O)N[C@@H](CCCNC(=N)N)C(=O)N[C@@H](CCC(N)=O)C(=O)N[C@@H](CCC(N)=O)C(N)=O)[C@@H](C)CC)[C@@H](C)CC)[C@@H](C)O)[C@@H](C)O)C(C)C)C(C)C` [MELITTIN] yielded an MHC10 [32] of 2 µM, a selectivity ratio [33] of 0.8 and a Ratio [34] of 2. The Ratio [35] was 2, the Ratio [36] was 2 and the Activity [37] was “inactive”. The Activity [38] was “Active”, the Activity [39] was “Active” and the Activity [40] was “Active”. The Activity [8] was “Active”, the Activity [9] was “Active” and the Activity [10] was “Active”. For the same compound, the Activity [11] was “Active”, the Activity [12] was “Active” and the Activity [13] was “Active”. The Activity [14] was “Active”, the Activity [15] was “Active” and the Activity [16] was 92.5%. The Activity [17] was 91.9%, the Activity [18] was “Active” and the Activity [19] was “inactive”. For the same compound, the Activity [41] was “Toxic”.
